Measurements taken from the NIST ThermoML archive (doi:10.1021/je800110r).
Numbers after ± are expanded uncertainties.

Conditions: 313.14 K, Liquid, Vibrating tube method

Measured: mass density

CCCCCCCCCC [decane]
725 ± 2 kg/m3: 12523 kPa | 12552 kPa | 12574 kPa | 12650 kPa
727 ± 2 kg/m3: 15100 kPa | 15125 kPa | 15190 kPa | 15219 kPa | 15248 kPa | 15397 kPa
726.1 ± 2 kg/m3: 13970 kPa | 13987 kPa | 14029 kPa | 14071 kPa | 14119 kPa | 14140 kPa
726.9 ± 2 kg/m3: 15036 kPa | 15068 kPa | 15154 kPa
727.2 ± 2 kg/m3: 15343 kPa | 15372 kPa | 15441 kPa | 15485 kPa | 15504 kPa | 15526 kPa
725.4 ± 2 kg/m3: 13171 kPa | 13253 kPa | 13333 kPa
725.7 ± 2 kg/m3: 13384 kPa | 13434 kPa | 13520 kPa | 13538 kPa | 13562 kPa | 13583 kPa
725.3 ± 2 kg/m3: 12807 kPa | 12882 kPa | 12923 kPa | 12973 kPa | 12992 kPa | 13015 kPa | 13059 kPa | 13081 kPa
724.7 ± 2 kg/m3: 12118 kPa | 12173 kPa | 12197 kPa | 12257 kPa
726.3 ± 2 kg/m3: 14196 kPa | 14253 kPa | 14302 kPa | 14328 kPa | 14371 kPa | 14426 kPa
725.9 ± 2 kg/m3: 13714 kPa | 13743 kPa | 13768 kPa | 13797 kPa | 13830 kPa
725.2 ± 2 kg/m3: 12695 kPa | 12834 kPa | 12857 kPa | 12901 kPa | 12948 kPa
724.8 ± 2 kg/m3: 12324 kPa | 12341 kPa | 12434 kPa
724.6 ± 2 kg/m3: 12090 kPa | 12233 kPa
726.7 ± 2 kg/m3: 14693 kPa | 14719 kPa | 14780 kPa | 14830 kPa | 14861 kPa
725.6 ± 2 kg/m3: 13187 kPa | 13405 kPa | 13475 kPa
726.5 ± 2 kg/m3: 14485 kPa | 14511 kPa | 14540 kPa | 14570 kPa | 14630 kPa
724.5 ± 2 kg/m3: 12060 kPa | 12149 kPa
727.3 ± 2 kg/m3: 15467 kPa
727.1 ± 2 kg/m3: 15273 kPa | 15314 kPa | 15423 kPa
726.2 ± 2 kg/m3: 14008 kPa | 14050 kPa | 14091 kPa | 14168 kPa | 14224 kPa
725.8 ± 2 kg/m3: 13451 kPa | 13499 kPa | 13607 kPa | 13636 kPa | 13654 kPa
724.9 ± 2 kg/m3: 12287 kPa | 12365 kPa | 12382 kPa | 12406 kPa | 12459 kPa | 12483 kPa | 12501 kPa | 12596 kPa | 12624 kPa
726.6 ± 2 kg/m3: 14663 kPa | 14750 kPa
726.8 ± 2 kg/m3: 14811 kPa | 14892 kPa | 14919 kPa | 14944 kPa | 14964 kPa | 14984 kPa | 15008 kPa
726.4 ± 2 kg/m3: 14277 kPa | 14353 kPa | 14405 kPa | 14449 kPa | 14600 kPa
726 ± 2 kg/m3: 13682 kPa | 13848 kPa | 13878 kPa | 13900 kPa | 13932 kPa
725.1 ± 2 kg/m3: 12672 kPa | 12721 kPa | 12751 kPa | 12774 kPa
725.5 ± 2 kg/m3: 13037 kPa | 13107 kPa | 13127 kPa | 13151 kPa | 13210 kPa | 13230 kPa | 13276 kPa | 13309 kPa | 13357 kPa
